From publication PMC4399838, “Antipsychotic-Like Effect of the Muscarinic Acetylcholine Receptor Agonist BuTAC in Non-Human Primates” (PLoS ONE, 2015)

Assays:
[1] = target: T1, human M1 muscarinic receptor (Homo sapiens, UniProt P11229); set-up: method as in Watt et al. 2013 [10]; conditions: ref Watt et al. 2013 [10], cited from earlier work
T1 construct: purchased PerkinElmer Life and Analytical Sciences, Boston, MA
T1 sequence (P11229 1-460): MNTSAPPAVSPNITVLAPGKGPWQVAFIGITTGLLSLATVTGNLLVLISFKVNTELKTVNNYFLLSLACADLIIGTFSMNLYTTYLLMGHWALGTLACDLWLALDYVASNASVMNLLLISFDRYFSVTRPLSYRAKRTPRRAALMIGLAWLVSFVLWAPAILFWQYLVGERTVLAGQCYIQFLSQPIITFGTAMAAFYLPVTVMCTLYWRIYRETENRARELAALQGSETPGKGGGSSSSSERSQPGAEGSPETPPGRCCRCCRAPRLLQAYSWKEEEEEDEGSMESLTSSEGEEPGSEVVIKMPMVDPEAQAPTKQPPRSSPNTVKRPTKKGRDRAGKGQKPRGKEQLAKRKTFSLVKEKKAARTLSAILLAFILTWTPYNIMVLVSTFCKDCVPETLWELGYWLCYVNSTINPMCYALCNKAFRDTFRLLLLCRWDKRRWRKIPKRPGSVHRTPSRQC

[2] = target: T2, human M2 muscarinic receptor (Homo sapiens, UniProt P08172); set-up: method as in Watt et al. 2013 [10]; conditions: agonist mode, ref Watt et al. 2013 [10], cited from earlier work
T2 construct: purchased PerkinElmer Life and Analytical Sciences, Boston, MA
T2 sequence (P08172 1-466): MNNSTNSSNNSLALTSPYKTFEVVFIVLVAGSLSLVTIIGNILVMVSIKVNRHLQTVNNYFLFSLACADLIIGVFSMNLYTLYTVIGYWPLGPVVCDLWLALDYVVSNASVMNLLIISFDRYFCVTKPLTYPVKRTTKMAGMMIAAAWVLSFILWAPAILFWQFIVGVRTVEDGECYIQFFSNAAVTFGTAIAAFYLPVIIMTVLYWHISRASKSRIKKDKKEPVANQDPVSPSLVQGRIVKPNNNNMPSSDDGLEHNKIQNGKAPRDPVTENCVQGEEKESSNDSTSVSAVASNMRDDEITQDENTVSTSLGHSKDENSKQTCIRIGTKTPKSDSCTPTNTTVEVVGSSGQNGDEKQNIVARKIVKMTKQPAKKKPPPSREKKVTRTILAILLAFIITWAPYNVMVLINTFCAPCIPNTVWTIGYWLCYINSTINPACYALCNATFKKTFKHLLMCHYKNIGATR

M1AChR = target: T3, M1AChR (Homo sapiens, UniProt P11229); assay: Competitive radioligand binding
T3 sequence (P11229 1-460): T1 sequence (P11229 1-460)

| Compound | Rel pEC50 ([1]; agonist mode, negative log-transformed) [M] | % Emax ([1]; agonist mode) [%] | Rel pIC50 ([1]; antagonist mode, negative log-transformed) [M] | % Inhibition ([1]; antagonist mode) [%] | Rel pEC50 ([2]; negative log-transformed) [M] | % Emax [2] [%] | Ki (M1AChR) [nM] |
| --- | --- | --- | --- | --- | --- | --- | --- |
| CCCCSc1nsnc1[C@H]1CN2CCC[C@H]1C2 [BuTAC, (5R,6R)-6-(3-butylthio-1,2,5-thiadiazol-4-yl)-1-azabicyclo[3.2.1]octane] | 9.22±9.80 | 33.56±6.29 | 9.03±10.01 | 57.27±2.35 | 9.56 ±10.26 | 136.53 ± 17.20 |  |
| CCCSc1nsnc1[C@H]1CN2CCC[C@H]1C2 [PTAC, (5R,6R) 6-(3-propylthio-1,2,5-thiadiazol-4-yl)-1-azabicyclo-[3.2.1]-octane] |  |  |  |  |  |  | 1.05 |
